{"source": "PubChem BioAssay AID1259409", "about": "(Chemical Carcinogenesis Research Information System (CCRIS), 2018)", "origin": "cited, not measured here", "system": "rodent chemically induced tumor inhibition, incidence and multiplicity", "assay": "CCRIS tumor inhibitor studies", "details": "Promoter: NONE USED"}
{"smiles": "CC/C(=C(\\c1ccccc1)c1ccc(OCCN(C)C)cc1)c1ccccc1", "values": [{"measurement": "tumour outcome (control, treated, inhibition, significance)", "setting": "Carcinogen: N-METHYL-N-NITROSOUREA, 684-93-5, Dose [Inhibitor]: 50 UG DISSOLVED IN SMALL VOLUME OF ETHANOL AND DILUTED IN 1% GELATIN-0.9% NACL TO INJECTION VOLUME OF 0.2 ML, DAILY STAR, Route [Inhibitor]: INJECTION, Species: RAT, Strain/Sex: SPRAGUE-DAWLEY/FEMALE, Target Tissue: Type of Lesion: MAMMARY GLAND: TUMOR, Dose [Carcinogen]: 5 MG/100 G BW AT 0, 4 AND 8 WK OF STUDY STARTING SIMULTANEOUSLY WITH AGENT TREATMENT", "value": "86%, 9%, 90%, not calculated"}, {"measurement": "tumour outcome (control, treated, inhibition, significance)", "setting": "Carcinogen: N-NITROSO-N-METHYLUREA, 684-93-5, Dose [Inhibitor]: 0, 0.5 MG/KG OF DIET FOR 3 MO BEGINNING 1 WK POST CARCINOGEN DOSE (STUDY DURATION: 100 D), Route [Inhibitor]: ORAL, Species: RAT, Strain/Sex: SPRAGUE-DAWLEY/FEMALE, Target Tissue: Type of Lesion: MAMMARY GLAND: TUMOR, Dose [Carcinogen]: 50 MG/KG BW ONCE", "value": "100%, 75%, 25%, p=0.03"}, {"measurement": "tumour outcome (control, treated, inhibition, significance)", "setting": "Carcinogen: N-NITROSO-N-METHYLUREA, 684-93-5, Dose [Inhibitor]: 0, 0.5 MG/KG OF DIET FOR 4.5 MO BEGINNING 1 WK POST CARCINOGEN DOSE (STUDY DURATION: 100 D), Route [Inhibitor]: ORAL, Species: RAT, Strain/Sex: SPRAGUE-DAWLEY/FEMALE, Target Tissue: Type of Lesion: MAMMARY GLAND: TUMOR, Dose [Carcinogen]: 50 MG/KG BW ONCE", "value": "96%, 50%, 48%, p=0.003"}, {"measurement": "tumour outcome (control, treated, inhibition, significance)", "setting": "Carcinogen: N-NITROSO-N-METHYLUREA, 684-93-5, Dose [Inhibitor]: 0, 1 MG/KG OF DIET FOR 4.5 MO BEGINNING 1 WK POST CARCINOGEN DOSE (STUDY DURATION: 100 D), Route [Inhibitor]: ORAL, Species: RAT, Strain/Sex: SPRAGUE-DAWLEY/FEMALE, Target Tissue: Type of Lesion: MAMMARY GLAND: TUMOR, Dose [Carcinogen]: 50 MG/KG BW ONCE", "value": "96%, 42%, 56%, p<0.001"}, {"measurement": "tumour outcome (control, treated, inhibition, significance)", "setting": "Carcinogen: NONE USED, Dose [Inhibitor]: 0, 125 UG/D FROM SUSTAINED RELEASE SILASTIC CAPSULES ADMINISTERED TO OVARIECTOMIZED MICE FOR 17 MO BEGINNING AT 3 MO OF, Route [Inhibitor]: IMPLANT, Species: MOUSE, Strain/Sex: C3H/OUJ/FEMALE, Target Tissue: Type of Lesion: MAMMARY GLAND: TUMOR", "value": "50%, 22%, 56%, p<0.003"}, {"measurement": "tumour outcome (control, treated, inhibition, significance)", "setting": "Carcinogen: NONE USED, Dose [Inhibitor]: 0, 125 UG/D FROM SUSTAINED RELEASE SILASTIC CAPSULES FOR 3 MO BEGINNING AT 4 MO OF AGE (STUDY DURATION: 18 MO), Route [Inhibitor]: IMPLANT, Species: MOUSE, Strain/Sex: C3H/OUJ/FEMALE, Target Tissue: Type of Lesion: MAMMARY GLAND: TUMOR", "value": "100%, 20%, 80%, p<0.001"}, {"measurement": "tumour outcome (control, treated, inhibition, significance)", "setting": "Carcinogen: NONE USED, Dose [Inhibitor]: 0, 125 UG/D FROM SUSTAINED RELEASE SILASTIC CAPSULES FOR 6 MO BEGINNING AT 3 MO OF AGE (STUDY DURATION: 18 MO), Route [Inhibitor]: IMPLANT, Species: MOUSE, Strain/Sex: C3H/OUJ/FEMALE, Target Tissue: Type of Lesion: MAMMARY GLAND: TUMOR", "value": "100%, 26%, 74%, p<0.001"}, {"measurement": "tumour outcome (control, treated, inhibition, significance)", "setting": "Carcinogen: NONE USED, Dose [Inhibitor]: 0, 125 UG/D FROM SUSTAINED RELEASE SILASTIC CAPSULES FOR 12 MO BEGINNING AT 3 MO OF AGE (STUDY DURATION: 18 MO), Route [Inhibitor]: IMPLANT, Species: MOUSE, Strain/Sex: C3H/OUJ/FEMALE, Target Tissue: Type of Lesion: MAMMARY GLAND: TUMOR", "value": "100%, 24%, 76%, p<0.001"}, {"measurement": "tumour outcome (control, treated, inhibition, significance)", "setting": "Carcinogen: NONE USED, Dose [Inhibitor]: 0, 125 UG/D FROM SUSTAINED RELEASE SILASTIC CAPSULES FOR 17 MO BEGINNING AT 3 MO OF AGE (STUDY DURATION: 27 MO), Route [Inhibitor]: IMPLANT, Species: MOUSE, Strain/Sex: C3H/OUJ/FEMALE, Target Tissue: Type of Lesion: MAMMARY GLAND: TUMOR", "value": "100%, 20%, 80%, p<0.003"}, {"measurement": "tumour outcome (control, treated, inhibition, significance)", "setting": "Carcinogen: PROGESTERONE, 57-83-0, Dose [Inhibitor]: 0, 125 UG/D FROM SUSTAINED RELEASE SILASTIC CAPSULES FOR 3 MO PRIOR TO CARCINOGEN TREATMENT (STUDY DURATION: 18 MO), Route [Inhibitor]: IMPLANT, Species: MOUSE, Strain/Sex: C3H/OUJ/FEMALE, Target Tissue: Type of Lesion: MAMMARY GLAND: TUMOR, Dose [Carcinogen]: 20 MG ADMINISTERED IN SUSTAINED RELEASE SILASTIC CAPSULES FOR A ONE MO DURATION EVERY OTHER MO", "value": "100%, 92%, 8%, not significant"}, {"measurement": "tumour outcome (control, treated, inhibition, significance)", "setting": "Carcinogen: PROGESTERONE, 57-83-0, Dose [Inhibitor]: 0, 125 UG/D FROM SUSTAINED RELEASE SILASTIC CAPSULES FOR 6 MO PRIOR TO CARCINOGEN TREATMENT (STUDY DURATION: 18 MO), Route [Inhibitor]: IMPLANT, Species: MOUSE, Strain/Sex: C3H/OUJ/FEMALE, Target Tissue: Type of Lesion: MAMMARY GLAND: TUMOR, Dose [Carcinogen]: 20 MG ADMINISTERED IN SUSTAINED RELEASE SILASTIC CAPSULES FOR A ONE MO DURATION EVERY OTHER MO", "value": "100%, 52%, 48%, p<0.002"}, {"measurement": "tumour outcome (control, treated, inhibition, significance)", "setting": "Carcinogen: PROGESTERONE, 57-83-0, Dose [Inhibitor]: 0, 125 UG/D FROM SUSTAINED RELEASE SILASTIC CAPSULES FOR 12 MO BEGINNING AT 3 MO OF AGE (STUDY DURATION: 21 MO), Route [Inhibitor]: IMPLANT, Species: MOUSE, Strain/Sex: C3H/OUJ/FEMALE, Target Tissue: Type of Lesion: MAMMARY GLAND: TUMOR, Dose [Carcinogen]: 20 MG ADMINISTERED IN SUSTAINED RELEASE SILASTIC CAPSULES GIVEN FOR A ONE MONTH DURATION EVERY OTHER MO BEGINNING AT 3 M", "value": "100%, 88%, 12%, not significant"}, {"measurement": "tumour outcome (control, treated, inhibition, significance)", "setting": "Carcinogen: SUBCUTANEOUS IMPLANT, Dose [Inhibitor]: ZERANOL, 26538-44-3, Route [Inhibitor]: 0, 5 MG 2/WK TO DAY 32 THEN 1/WK TO DAY 202 (STUDY DURATION: 202 D), Species: HAMSTER, Strain/Sex: SUBCUTANEOUS, Target Tissue: Type of Lesion: LIVER: HEPATOCELLULAR ADENOMA, Dose [Carcinogen]: NONE USED", "value": "56%, 0%, 100%, not calculated"}, {"measurement": "tumour outcome (control, treated, inhibition, significance)", "setting": "Carcinogen: ZERANOL, 26538-44-3, Dose [Inhibitor]: 0, 5 MG 2/WK TO DAY 32 THEN 1/WK TO DAY 202 (STUDY DURATION: 202 D), Route [Inhibitor]: SUBCUTANEOUS, Species: HAMSTER, Strain/Sex: ARMENIAN/FEMALE, Target Tissue: Type of Lesion: LIVER: HEPATOCELLULAR ADENOMA, Dose [Carcinogen]: 36 MG IMPLANTED ON DAYS 0 AND 94", "value": "57%, 0%, 100%, not calculated"}, {"measurement": "tumour outcome (control, treated, inhibition, significance)", "setting": "Carcinogen: ZERANOL, 26538-44-3, Dose [Inhibitor]: 0, 5 MG 2/WK TO DAY 32 THEN 1/WK TO DAY 202 (STUDY DURATION: 202 D), Route [Inhibitor]: SUBCUTANEOUS, Species: HAMSTER, Strain/Sex: ARMENIAN/FEMALE, Target Tissue: Type of Lesion: LIVER: HEPATOCELLULAR CARCINOMA, Dose [Carcinogen]: 36 MG IMPLANTED ON DAYS 0 AND 94", "value": "6/7 (86%), 0/4 (0%), 100%, not calculated"}, {"measurement": "tumour outcome (control, treated, inhibition, significance)", "setting": "Carcinogen: ZERANOL, 26538-44-3, Dose [Inhibitor]: 0, 5 MG 2/WK TO DAY 32 THEN 1/WK TO DAY 202 (STUDY DURATION: 202 D), Route [Inhibitor]: SUBCUTANEOUS, Species: HAMSTER, Strain/Sex: ARMENIAN/MALE, Target Tissue: Type of Lesion: LIVER: HEPATOCELLULAR CARCINOMA, Dose [Carcinogen]: 36 MG IMPLANTED ON DAYS 0 AND 94", "value": "3/9 (33%), 0/4 (0%), 100%, not calculated"}]}
